Measured values as given in patent US20090274739A1, “METHODS AND COMPOSITIONS FOR TREATING NEOINTIMAL HYPERPLASIA” (THE TRUSTEES OF COLUMBIA UNIVERSITY IN THE CITY OF NEW YORK, priority 2006, published 2009).

Assays:
Format in all cases: cell-based, mouse
[1] = tested on: p70S6K and 4E-BP1 phosphorylation (mTOR substrates); experiment: Immunoblot of p70S6K and 4E-BP1 phosphorylation in VSMC
Experimental: (§1) Western blot analysis: The cells were plated in a 100-mm culture dish in DMEM supplemented with 20% FBS for 24 h at 37° C., followed by serum starvation for 48 h. Cells were then treated with different reagents for 30 min. Cells were subsequently lysed on ice for 30 min in RIPA buffer [150 mM NaCl, 100 mM Tris (pH 8.0), 1% Triton X-100, 1% deoxycholic acid, 0.1% SDS, 5 mM EDTA, and 10 mM NaF] supplemented with 1 mM sodium vanadate, 2 mM leupeptin, 2 mM aprotinin, 1 mM phenylmethylsulfonyl fluoride (PMSF), 1 mM DTT, and 2 mM pepstatin A. After centrifugation at 14,000 rpm for 30 min, the supernatant was harvested as the total cellular protein extract, and stored at −70° C. The protein concentration was determined using Bio-Rad protein assay reagent (Richmond, Calif.). The total cellular protein extracts were separated by SDS-polyacrylamide gel electrophoresis (SDS-PAGE) and transferred to nitrocellulose membrane in 20 mM Tris-HCl (pH 8.0) containing 150 mM glycine and 20% (v/v) methanol.
Blots were washed three times in PBS buffer, followed by incubation with the appropriate HRP-linked IgG. The specific proteins in the blots were visualized using an enhanced chemiluminescence reagent (NEN, Boston, Mass.).
Starved murine VSMCs were incubated for 20 min with leptin (100 ng/ml) or 10% FBS, in the absence or presence of rapamycin (100 nmol/L).
(§2) VSMC were plated on 100-mm dishes, serum starved for 72 h in DMEM containing 0.1% FBS, and stimulated with 0.6 or 6 nM (10 or 100 ng/ml) leptin. Extracts were prepared by brief sonication in HKM buffer [40 mM HEPES-KOH (pH 7.6), 7.5 mM MgCl2, 0.5 mM DTT] or, in the case of Akt phosphorylation studies, by lysing cells on ice for 30 min in RIPA buffer. 70 μg of protein per sample were subjected to immunoblotting by standards protocols. Imaging and densitometry were performed on an Odyssey infrared system (Li-Cor, Lincoln, Neb.).

[2] = tested on: Akt phosphorylation; experiment: Immunoblot of Akt phosphorylation in VSMC
Experimental: as §1
Membranes were blocked with 5% nonfat dried milk in PBS containing 0.05% Tween 20 and incubated with antibodies against phospho-(Thr^202/Tyr^204) p42/p44^MAPK and p42/p44^MAPK, phospho-Akt([…]) and anti-Akt, p70^S6K, 4EBP-1. Blots were washed three times in PBS buffer, followed by incubation with the appropriate HRP-linked IgG. The specific proteins in the blots were visualized using an enhanced chemiluminescence reagent (NEN, Boston, Mass.).
as §2

[3] = tested on: murine VSMC migration; experiment: VSMC migration, modified Boyden chamber; conditions: leptin 6 nM
Experimental: Migration of VSMCs: Migration was measured using a modified Boyden chamber as previously described (Grinspoon S, et al., J Clin Endocrinol Metab, 1996, 81(11):3861-3). The lower chambers contained PDGF (10 ng/mL), insulin (200 nmol/L), or 0.2% BSA (negative control) in DMEM. 2×10^5 cells were loaded into the top chamber. After 6 h, non-migrating cells were scraped from the upper surface of the filter, and the lower surface of the filter was stained with HEMA 3 Stain Set (Fisher Diagnostics, Middletown, Va.). The number of migrated VSMCs was determined by counting 4 fields at 200× magnification, of constant area per well. Values are expressed as the percentage of cells migrating in response to a chemo-attractant after subtracting the negative control. Experiments were performed thrice in triplicate wells.
FIG. 5 is a graph that depicts inhibition of migration of VSMCs toward insulin by rapamycin. […]
Primary VSMC were isolated from aortic explants of WT, ob/ob, or db/db mice (46). VSMC proliferation was determined using the Cell Titre Aqueous One Solution Proliferation Assay (Promega, Madison, Wis.). Migration to PDGF-BB was assessed in a modified Boyden chamber assay (47).

Leptin: recombinant leptin; hormone derived from adipose tissue, encoded by the Ob gene
phosphorylation of S6K and 4EBP-1 ([1]; Example 1, leptin 10 ng/mL, data not shown): stimulated the phosphorylation | phosphorylation of p70S6K and 4E-BP1 ([1]; Example 2, leptin 100 ng/ml): up-phosphorylated | S6K phosphorylation ([1]; Example 5, leptin 0.6 nM, data not shown): stimulated S6K phosphorylation, albeit less robustly | phosphorylation of S6K ([1]; Example 5, leptin 6 nM): stimulated the phosphorylation | phosphorylation of Akt (on serine 473) ([2]; Example 1, leptin 10 ng/mL): stimulated the phosphorylation | time of maximum Akt phosphorylation ([2]; Example 2, leptin 100 ng/ml, decreasing thereafter at 45 min): 10 min | Thr-308 phosphorylation of Akt ([2]; Example 5, leptin 6 nM): stimulated | phosphorylation of Ser-473 of Akt ([2]; Example 5, leptin 6 nM): stimulated the phosphorylation | PDGF-induced migration of VSMC ([3]; WT VSMC): enhanced | PDGF-induced migration of VSMC ([3]; db/db VSMC): not
